According to ChEMBL document CHEMBL1132845, “Synthesis and potent anticonvulsant activities of 4-oxo-imidazo[1,2-a]inden” (Bioorg Med Chem Lett, 2000):

What was measured:
[1] = species on record: Mus musculus; experiment: Anticonvulsant activity in male CD1 mice; assay type: functional
[2] = biological target: T1, Glutamate receptor ionotropic, AMPA (Rattus norvegicus, UniProt P19490+P19491+P19492+P19493)
Description: Antagonistic activity against Ionotropic glutamate receptor AMPA using kainate-evoked current in Xenopus oocytes injected with rat brain mRNA

[3] = biological target: T1, Glutamate receptor ionotropic, AMPA; remark: listed apart in the source
Description: Binding affinity for Ionotropic glutamate receptor AMPA

[4] = biological target: Glutamate NMDA receptor; experiment: Binding affinity for N-methyl-D-aspartate glutamate receptor; assay type: protein-complex assay, Rattus norvegicus
[5] = test system: Rattus norvegicus; experiment: Effective dose in MES test in SD rat after i.p. administration; settings: ip
[6] = biological target: T1, Glutamate receptor ionotropic, AMPA; experiment: Binding affinity against Ionotropic glutamate receptor AMPA in rat brain
[7] = test system: Rattus norvegicus; experiment: Effective dose in MES test in SD rat after i.v. administration; assay type: functional; settings: iv
[8] = test system: Mus musculus; experiment: Effective dose in MES test in mouse after s.c. administration; assay type: functional; settings: sc
[9] = test system: Mus musculus; experiment: Anticonvulsant activity against GABA receptor complex after intra peritoneal administration in CD1 mouse
[10] = test system: Mus musculus; experiment: Anticonvulsant activity against glutamic acid receptor complex after subcutaneous administration in CD1 mouse; assay type: functional; settings: sc
[11] = test system: Mus musculus; experiment: Anticonvulsant activity after subcutaneous administration in CD1 mouse
[12] = test system: Mus musculus; experiment: Effective dose in mouse after i.p. administration; assay type: functional; settings: ip
[13] = test system: Rattus norvegicus; experiment: Effective dose in MES test in SD rat after s.c. administration; assay type: functional; settings: sc
[14] = test system: Mus musculus; experiment: Effective dose in MES test in mouse after i.v. administration; assay type: functional; settings: iv
[15] = test system: Mus musculus; experiment: Effective dose in MES test in mouse after i.p. administration; settings: ip
[16] = species on record: Mus musculus; experiment: Compound was tested for the maximal electroshock effect in mice; assay type: functional

| IC50 [2] [nM] | IC50 [3] [nM] | IC50 [4] [nM] | Structure (SMILES) | ED50 [1] [mg/kg] | further results |
| --- | --- | --- | --- | --- | --- |
| 260 | – | – | O=c1[nH]c2cc(-n3ccnc3)c([N+](=O)[O-])cc2[nH]c1=O [YM-90K] | 12 | – |
| 3250 | 3500 | 21000 | O=C(O)c1cccc2c1Cc1c-2nc(O)c2nccn12 | – | – |
| – | – | – | NS(=O)(=O)c1cccc2c1c([N+](=O)[O-])cc1nc(O)c(O)nc12 [NBQX] | 36 | – |
| 230 | – | – | O=C(O)[C@@H]1C[C@H]2C[C@@H](CCc3nn[nH]n3)CC[C@H]2CN1 [TEZAMPANEL ANHYDROUS] | 4 | – |
| 2010 | 620 | 10000 | O=C(O)c1ccc2c(c1)Cc1c-2nc(O)c2nccn12 | > 80 | – |
| 1800 | – | – | Oc1nc2c(n3ccnc13)Cc1ccccc1-2 | 62 | – |
| 23 | 4 | 2100 | O=C(O)Cc1cn2c3c(nc(O)c2n1)-c1cccc(CC(=O)O)c1C3 | 2 | – |
| 104 | 89 | > 10000 | O=C(O)Cc1cccc2c1Cc1c-2nc(O)c2nccn12 | > 80 | – |
| 2640 | 10000 | > 10000 | O=C(O)Cc1ccc2c(c1)Cc1c-2nc(O)c2nccn12 | – | – |
| 29 | – | 83 | O=C(O)c1cn2c3c(nc(O)c2n1)-c1ccccc1C3 | 50 | – |
| 53 | 450 | 4100 | CC(C(=O)O)c1cccc2c1Cc1c-2nc(O)c2nc(C(=O)O)cn12 (configuration not stated) | 19 | – |
| 214 | 611 | > 10000 | O=C(O)Cc1ccc2c(c1)Cc1c-2nc(O)c2nc(C(=O)O)cn12 | 16 | – |

| Structure (SMILES) | IC50 [2] [nM] | IC50 [3] [nM] | IC50 [4] [nM] | ED50 [1] [mg/kg] | further results |
| --- | --- | --- | --- | --- | --- |
| O=C(O)Cc1cccc2c1Cc1c-2nc(O)c2nc(C(=O)O)cn12 | 5 | 18 | 7200 | 1.2 | ED50 [5]: 4.8 mg/kg; IC50 [6]: 4 nM; ED50 [7]: 0.4 mg/kg; ED50 [8]: 1 mg/kg; ED50 [9]: 1.7 mg/kg; ED50 [10]: 1.5 mg/kg; ED50 [11]: ~16 mg/kg; ED50 [12]: 0.8 mg/kg; ED50 [13]: 1 mg/kg; ED50 [14]: 0.5 mg/kg; ED50 [15]: 1.2 mg/kg; ED50 [16]: ≤ 2 mg/kg |
